Data taken from patent US20220081412A1, “QUINOLINYL-PYRAZINE-CARBOXAMIDE COMPOUNDS AND USES THEREOF” (The Regents of the University of Michigan, priority 2018, published 2022).

Test system: MIA PaCa-2 cells
Assay: Bru-seq analysis for nascent RNA synthesis (log2FC of genes, GSEA gene sets)
Type: cell-based, human
Settings: 4 h
[1] = PYEON_CANCER_HEAD_AND_NECK_VS_CERVICAL_UP, C2, downregulated
[2] = RIGGINS_TAMOXIFEN_RESISTANCE_DN, C2, downregulated
[3] = SCHLOSSER_MYC_TARGETS_AND_SERUM_RESPONSE_DN, C2, downregulated
[4] = SENGUPTA_NASOPHARYNGEAL_CARCINOMA_UP, C2, downregulated
[5] = SENGUPTA_NASOPHARYNGEAL_CARCINOMA_WITH_LMP1_UP, C2, downregulated
[6] = SHEN_SMARCA2_TARGETS_UP, C2, downregulated
[7] = TAKEDA_TARGETS_OF_NUP98_HOXA9_FUSION_3D_UP, C2, downregulated
[8] = TAKEDA_TARGETS_OF_NUP98_HOXA9_FUSION_6HR_UP, C2, downregulated
[9] = TCANNTGAY_SREBP1_01, TFBT, upregulated
[10] = TGANNYRGCA_TCF11MAFG_01, TFBT, upregulated
[11] = TTTNNANAGCYR_UNKNOWN, TFBT, upregulated
[12] = YANG_BREAST_CANCER_ESR1_LASER_DN, C2, downregulated
[13] = ZHANG_BREAST_CANCER_PROGENITORS_UP, C2, downregulated
[14] = ZHANG_TLX_TARGETS_36HR_DN, C2, downregulated
[15] = ZHANG_TLX_TARGETS_DN, C2, downregulated
[16] = ZHENG_BOUND_BY_FOXP3, C2, downregulated
[17] = top upregulated noncoding genes, MIA PaCa-2 cells
[18] = top upregulated protein-coding genes, MIA PaCa-2 cells

Cc1cc(NC(=O)c2cnc(N3CCNCC3)cn2)c2ncccc2c1 [J28, N-(6-methylquinolin-8-yl)-5-(piperazin-1-yl)pyrazine-2-carboxamide]
ES (OCT1Q5_01, TFBT, upregulated): 0.383 | NES (OCT1Q5_01, TFBT, upregulated): 1.568 | ES (PEA3_Q6, TFBT, upregulated): 0.389 | NES (PEA3_Q6, TFBT, upregulated): 1.645 | log2FC (PHLDB2, downregulated protein-coding gene): −0.93 | log2FC (PTX3, downregulated protein-coding gene): −1.04 | ES [1]: −0.405 | NES [1]: −1.998 | ES [2]: −0.420 | NES [2]: −1.996 | log2FC (RNVU1-6, downregulated noncoding gene): −1.29 | ES [3]: −0.485 | NES [3]: −1.909 | ES [4]: −0.477 | NES [4]: −2.454 | ES [5]: −0.503 | NES [5]: −2.612 | ES [6]: −0.402 | NES [6]: −2.248 | log2FC (SLCO1B3, downregulated protein-coding gene): −0.96 | log2FC (SPTY2D1-AS1, downregulated protein-coding gene): −0.93 | ES (SREBP1_01, TFBT, upregulated): 0.417 | NES (SREBP1_01, TFBT, upregulated): 1.757 | ES (SREBP1_Q6, TFBT, upregulated): 0.386 | NES (SREBP1_Q6, TFBT, upregulated): 1.611 | ES (SRF_01, TFBT, upregulated): 0.541 | NES (SRF_01, TFBT, upregulated): 1.708 | log2FC (SRRM1P2, downregulated noncoding gene): −0.97 | ES [7]: −0.469 | NES [7]: −1.940 | ES [8]: −0.667 | NES [8]: −2.252 | ES [9]: 0.399 | NES [9]: 1.843 | log2FC (TEX15, downregulated protein-coding gene): −0.95 | ES [10]: 0.359 | NES [10]: 1.552 | ES [11]: 0.502 | NES [11]: 1.859 | log2FC (TXNRD3NB, downregulated protein-coding gene): −0.86 | log2FC (WWTR1-IT1, downregulated noncoding gene): −1.14 | ES [12]: −0.521 | NES [12]: −1.924 | ES [13]: −0.342 | NES [13]: −1.914 | ES [14]: −0.518 | NES [14]: −2.618 | ES [15]: −0.457 | NES [15]: −2.032 | ES [16]: −0.362 | NES [16]: −1.929 | log2FC (ZNF37A, downregulated protein-coding gene): −0.93 | log2FC (ZNF816, downregulated protein-coding gene): −1.58 | log2FC AC027307.3 [17]: 1.20 | log2FC AC068473.5 [17]: 0.84 | log2FC AC090826.2 [17]: 0.90 | log2FC AC092279.1 [17]: 0.84 | log2FC AC106886.2 [17]: 1.10 | log2FC AC141586.1 [17]: 1.01 | log2FC AC239868.4 [17]: 0.91 | log2FC AL049543.1 [17]: 1.21 | log2FC AP001065.1 [17]: 0.95 | log2FC KRT18P31 [17]: 0.89 | log2FC PCBP2P1 [17]: 0.84 | log2FC RN7SL16P [17]: 1.19 | log2FC RPS16P5 [17]: 0.97 | log2FC SLC2A1-AS1 [17]: 1.22 | log2FC SNHG20 [17]: 1.06 | log2FC SNORA3B [17]: 0.88 | log2FC SNORA65 [17]: 1.28 | log2FC SNORA73B [17]: 0.91 | log2FC SNORA74D [17]: 1.76 | log2FC SNORD15A [17]: 0.86 | log2FC SNORD15B [17]: 0.90 | log2FC SNORD17 [17]: 1.17 | log2FC ST7-AS1 [17]: 0.95 | log2FC SYPL1P2 [17]: 0.85 | log2FC TDRKH-AS1 [17]: 0.90 | log2FC ABHD14B [18]: 1.28 | log2FC AC099811.2 [18]: 1.35 | log2FC APRT [18]: 1.39 | log2FC COMMD5 [18]: 1.31 | log2FC DBP [18]: 1.90 | log2FC DDX28 [18]: 1.46 | log2FC DHCR7 [18]: 1.44 | log2FC DOLK [18]: 1.70 | log2FC FASN [18]: 1.28 | log2FC H2AFX [18]: 1.36 | log2FC HIST1H1D [18]: 1.36 | log2FC HIST1H2BF [18]: 1.63 | log2FC HIST1H3B [18]: 1.82 | log2FC HIST1H3C [18]: 1.45 | log2FC HIST1H3I [18]: 1.28 | log2FC INSIG1 [18]: 1.65 | log2FC MVK [18]: 1.37 | log2FC ORMDL3 [18]: 1.39 | log2FC PCYT2 [18]: 2.03 | log2FC POP7 [18]: 1.30 | log2FC RNF26 [18]: 1.71 | log2FC SCD [18]: 1.67 | log2FC SDR39U1 [18]: 1.67
